We go through 18 molecules from paper PMC4885109, “Rapid Discovery and Structure–Activity Relationships of Pyrazolopyrimidines That Potently Suppress Breast Cancer Cell Growth via SRC Kinase Inhibition with Exceptional Selectivity over ABL Kinase” (Journal of Medicinal Chemistry, 2016).

For data set [1], the system named is MCF7 cells. Put plainly: Dose-response viability assay (PrestoBlue), MCF7. It is filed as cell-based. Conditions: Homo sapiens, MCF7, 120 h; 5 d, PrestoBlue cell viability.
In data set [2] the test system is MCF7 cells. Put plainly: Time-lapse cell growth assay (IncuCyte ZOOM). Conditions: for antiproliferative mode of action by time-lapse imaging: 1–100 μM. Type of data set: cell-based, human.
Another data set concerns the target BLK (Homo sapiens, UniProt P51451). Put plainly: biochemical.
The target of a further data set is HCK (Homo sapiens, UniProt P08631). Put plainly: biochemical.
Another data set deals with LCK (Homo sapiens, UniProt P06239). Put plainly: Kinase screening assay, 33P radioisotope (Reaction Biology). It is filed as biochemical. Conditions: recombinant kinase, 10 μM ATP.
A further data set has as its target FRK/PTK5 (Homo sapiens, UniProt P42685). Put plainly: biochemical.
For the next data set, the target named is LYN (Homo sapiens, UniProt P07948). Put plainly: biochemical.
The next data set has as its target FGR (Homo sapiens, UniProt P09769). Put plainly: Kinase screening assay, 33P radioisotope (Reaction Biology). Type of data set: biochemical.
Data set [3] relates to phospho-SRC^Y416 and phospho-FAK in MDA-MB-231 cells.
Data set [4] has as its system MCF7 cells.
The target in the next data set is CYP3A4 (Homo sapiens, UniProt P08684). Particulars: 10 μM.
Another data set addresses CYP2C9 (Homo sapiens, UniProt P11712). Conditions: 10 μM.
The next data set has as its target CYP2D6 (Homo sapiens, UniProt P10635). Conditions: 10 μM.
Another data set in a line: in vivo. Particulars: female, CD1, mouse, blood/plasma, 10 mg/kg.
Another data set is described as follows: physchem. Particulars: pH 7.4.
The nature of data set [5]: in vitro. Conditions: human, cryopreserved pooled primary hepatocytes.
Data set [6] can be described thus: in vitro. Particulars: mouse, cryopreserved pooled primary hepatocytes.
A further data set deals with T1, CYP1A2 (Homo sapiens, UniProt P05177).
T1 sequence (P05177 1-516): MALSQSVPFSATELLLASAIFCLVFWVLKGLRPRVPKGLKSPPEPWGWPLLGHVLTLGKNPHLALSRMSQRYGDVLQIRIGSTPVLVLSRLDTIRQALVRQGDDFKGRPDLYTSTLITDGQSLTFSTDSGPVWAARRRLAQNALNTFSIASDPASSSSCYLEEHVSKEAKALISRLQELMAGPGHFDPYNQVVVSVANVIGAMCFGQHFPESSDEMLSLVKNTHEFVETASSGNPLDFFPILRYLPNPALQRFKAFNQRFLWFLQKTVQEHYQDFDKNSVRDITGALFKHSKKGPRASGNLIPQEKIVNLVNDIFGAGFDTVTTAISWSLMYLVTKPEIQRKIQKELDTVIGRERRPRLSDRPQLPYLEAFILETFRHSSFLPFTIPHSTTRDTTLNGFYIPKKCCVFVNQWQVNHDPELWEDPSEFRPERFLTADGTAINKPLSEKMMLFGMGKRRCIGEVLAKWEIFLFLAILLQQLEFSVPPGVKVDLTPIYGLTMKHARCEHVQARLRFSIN
Particulars: 10 μM.

The target in the next data set is CYP2C19 (Homo sapiens, UniProt P33261). Conditions: 10 μM.
The subject of data set [7] is SYF murine embryonic fibroblasts (SRC-/-, YES-/-, FYN-/-). Put plainly: Dose-response proliferation study in SYF cells. Type of data set: cell-based, mouse. Particulars: compared with dasatinib.
For a further data set, the target named is ABL (Homo sapiens, UniProt P00519). Put plainly: Kinase screening assay, 33P radioisotope (Reaction Biology).
Data set [8] relates to MDA-MB-231 cells. Put plainly: Dose-response viability assay (PrestoBlue), MDA-MB-231. Type of data set: cell-based, human. Particulars: for decrease in antiproliferative activity relative to 11a: MDA-MB-231.
Another data set addresses SRC (Homo sapiens, UniProt P12931). Put plainly: Kinase screening assay, 33P radioisotope (Reaction Biology).
For data set [9] the following is noted: human, rat, 24 h.
Data set [10] deals with Tg(brn3c:mGFP) zebrafish embryos. It is filed as in vivo. Conditions: 1–10 μM (compatible with embryo survival).
Data set [11] relates to MDA-MB-231 cells. Put plainly: cells. Conditions: Homo sapiens, MDA-MB-231, 24 h, read-out: IC50, MDA-MB-231 Cell Migration After 24h.
For data set [12] the following is noted: cited from earlier work.
The conditions of data set [13]: cited from earlier work; for % F / Cmax / Tmax: PO.
The mark [14] stands for this setting: recombinant kinase, 10 μM ATP, read-out: IC50 (FGR).
[15] abbreviates: 5 mg/kg ref Kamath et al., 2008.

Where two headings read alike, the source gives them in different places.

Chain of LYN (P07948 whole entry): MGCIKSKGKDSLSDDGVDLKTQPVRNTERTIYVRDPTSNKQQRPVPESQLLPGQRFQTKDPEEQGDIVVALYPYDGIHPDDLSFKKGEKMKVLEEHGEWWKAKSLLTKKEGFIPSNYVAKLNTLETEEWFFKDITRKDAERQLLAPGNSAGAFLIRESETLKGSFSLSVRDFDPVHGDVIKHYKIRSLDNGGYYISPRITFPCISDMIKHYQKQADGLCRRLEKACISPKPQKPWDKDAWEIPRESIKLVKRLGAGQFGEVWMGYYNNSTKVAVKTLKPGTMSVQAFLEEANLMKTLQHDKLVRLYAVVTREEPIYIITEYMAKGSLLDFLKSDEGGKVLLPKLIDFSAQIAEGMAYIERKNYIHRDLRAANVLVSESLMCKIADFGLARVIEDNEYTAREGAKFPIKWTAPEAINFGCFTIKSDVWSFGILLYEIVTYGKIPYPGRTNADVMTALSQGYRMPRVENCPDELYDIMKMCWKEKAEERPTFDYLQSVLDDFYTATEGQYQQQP
Chain of FGR (P09769 whole entry): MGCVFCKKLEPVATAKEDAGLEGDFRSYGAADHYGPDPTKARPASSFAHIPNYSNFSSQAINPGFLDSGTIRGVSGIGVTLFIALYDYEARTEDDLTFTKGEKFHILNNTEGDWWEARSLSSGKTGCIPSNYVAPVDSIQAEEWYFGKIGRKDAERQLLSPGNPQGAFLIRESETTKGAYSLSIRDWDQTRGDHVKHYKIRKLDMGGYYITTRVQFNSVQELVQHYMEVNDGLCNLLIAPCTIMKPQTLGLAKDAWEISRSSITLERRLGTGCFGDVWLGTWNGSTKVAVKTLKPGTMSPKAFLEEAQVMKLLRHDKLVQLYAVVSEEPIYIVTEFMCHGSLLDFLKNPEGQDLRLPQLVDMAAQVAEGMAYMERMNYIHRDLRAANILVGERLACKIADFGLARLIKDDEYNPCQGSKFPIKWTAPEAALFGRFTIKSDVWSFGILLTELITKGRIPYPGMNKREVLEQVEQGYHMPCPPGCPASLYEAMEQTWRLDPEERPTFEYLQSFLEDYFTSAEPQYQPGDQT
Chain of FRK/PTK5 (P42685 whole entry): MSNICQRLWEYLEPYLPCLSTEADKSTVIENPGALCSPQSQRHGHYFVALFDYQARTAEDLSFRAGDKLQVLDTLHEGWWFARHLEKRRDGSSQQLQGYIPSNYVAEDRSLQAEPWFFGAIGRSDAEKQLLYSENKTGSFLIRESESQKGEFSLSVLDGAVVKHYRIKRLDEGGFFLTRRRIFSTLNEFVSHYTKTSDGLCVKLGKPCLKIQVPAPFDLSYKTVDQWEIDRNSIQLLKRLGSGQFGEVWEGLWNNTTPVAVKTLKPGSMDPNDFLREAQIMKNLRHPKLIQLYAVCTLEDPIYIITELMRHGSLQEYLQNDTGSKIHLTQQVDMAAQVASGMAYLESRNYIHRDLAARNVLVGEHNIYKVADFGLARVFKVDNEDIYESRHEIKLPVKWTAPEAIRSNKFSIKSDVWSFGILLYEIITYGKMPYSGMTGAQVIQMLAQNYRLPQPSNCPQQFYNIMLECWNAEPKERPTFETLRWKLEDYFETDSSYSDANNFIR
Chain of HCK (P08631 whole entry): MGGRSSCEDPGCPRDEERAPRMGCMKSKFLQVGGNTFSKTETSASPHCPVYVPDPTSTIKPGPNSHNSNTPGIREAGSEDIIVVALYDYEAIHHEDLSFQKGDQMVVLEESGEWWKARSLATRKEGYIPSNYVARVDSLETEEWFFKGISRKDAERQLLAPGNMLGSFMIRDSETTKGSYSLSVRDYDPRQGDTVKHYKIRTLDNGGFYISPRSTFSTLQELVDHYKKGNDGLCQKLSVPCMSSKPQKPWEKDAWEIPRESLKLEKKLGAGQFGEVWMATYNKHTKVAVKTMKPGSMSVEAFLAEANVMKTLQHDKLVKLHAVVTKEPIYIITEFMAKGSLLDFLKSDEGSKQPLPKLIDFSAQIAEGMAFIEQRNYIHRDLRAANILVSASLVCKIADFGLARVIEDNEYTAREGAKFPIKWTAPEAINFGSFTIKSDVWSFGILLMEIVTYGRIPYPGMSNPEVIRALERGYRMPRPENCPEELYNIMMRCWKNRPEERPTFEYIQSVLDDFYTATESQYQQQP
Chain of LCK (P06239 whole entry): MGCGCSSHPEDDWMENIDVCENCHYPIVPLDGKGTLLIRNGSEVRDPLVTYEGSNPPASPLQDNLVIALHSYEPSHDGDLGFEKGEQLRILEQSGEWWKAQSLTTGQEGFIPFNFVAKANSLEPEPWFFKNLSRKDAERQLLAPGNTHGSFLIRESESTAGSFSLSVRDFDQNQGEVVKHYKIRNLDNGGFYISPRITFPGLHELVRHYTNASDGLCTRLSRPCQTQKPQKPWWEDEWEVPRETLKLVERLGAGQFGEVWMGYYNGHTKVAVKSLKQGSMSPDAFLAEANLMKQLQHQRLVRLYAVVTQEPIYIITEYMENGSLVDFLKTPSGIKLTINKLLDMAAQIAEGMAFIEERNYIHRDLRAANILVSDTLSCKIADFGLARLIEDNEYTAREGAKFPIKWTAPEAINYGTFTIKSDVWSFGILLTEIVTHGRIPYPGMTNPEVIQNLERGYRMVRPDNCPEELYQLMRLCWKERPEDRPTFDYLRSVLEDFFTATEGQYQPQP
Chain of BLK (P51451 whole entry): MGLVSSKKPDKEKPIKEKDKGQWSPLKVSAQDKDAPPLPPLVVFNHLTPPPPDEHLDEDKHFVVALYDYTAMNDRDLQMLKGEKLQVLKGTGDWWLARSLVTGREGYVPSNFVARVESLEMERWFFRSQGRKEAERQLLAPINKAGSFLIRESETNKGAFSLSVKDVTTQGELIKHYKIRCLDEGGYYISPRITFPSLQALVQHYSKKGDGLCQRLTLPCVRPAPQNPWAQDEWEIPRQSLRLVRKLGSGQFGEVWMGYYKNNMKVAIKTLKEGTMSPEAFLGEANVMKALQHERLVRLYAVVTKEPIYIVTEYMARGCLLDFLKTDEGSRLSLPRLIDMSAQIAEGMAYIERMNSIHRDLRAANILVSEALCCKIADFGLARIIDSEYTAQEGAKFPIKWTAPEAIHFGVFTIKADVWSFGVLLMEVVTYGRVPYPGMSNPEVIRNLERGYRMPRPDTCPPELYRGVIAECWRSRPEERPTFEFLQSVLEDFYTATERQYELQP
Chain of CYP2C9 (P11712 whole entry): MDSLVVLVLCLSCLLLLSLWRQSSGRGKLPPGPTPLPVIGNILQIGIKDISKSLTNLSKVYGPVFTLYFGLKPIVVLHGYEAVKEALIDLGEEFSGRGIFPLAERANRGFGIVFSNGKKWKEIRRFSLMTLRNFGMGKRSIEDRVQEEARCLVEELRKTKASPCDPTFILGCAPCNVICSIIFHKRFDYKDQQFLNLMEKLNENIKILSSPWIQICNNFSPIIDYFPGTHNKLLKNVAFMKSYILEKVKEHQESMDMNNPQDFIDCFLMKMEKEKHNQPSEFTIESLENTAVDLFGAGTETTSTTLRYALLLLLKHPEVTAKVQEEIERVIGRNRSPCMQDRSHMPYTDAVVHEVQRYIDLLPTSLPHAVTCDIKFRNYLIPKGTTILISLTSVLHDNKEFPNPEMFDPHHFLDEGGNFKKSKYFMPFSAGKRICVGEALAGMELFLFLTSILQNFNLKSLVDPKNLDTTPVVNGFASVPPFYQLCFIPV
Chain of CYP2C19 (P33261 whole entry): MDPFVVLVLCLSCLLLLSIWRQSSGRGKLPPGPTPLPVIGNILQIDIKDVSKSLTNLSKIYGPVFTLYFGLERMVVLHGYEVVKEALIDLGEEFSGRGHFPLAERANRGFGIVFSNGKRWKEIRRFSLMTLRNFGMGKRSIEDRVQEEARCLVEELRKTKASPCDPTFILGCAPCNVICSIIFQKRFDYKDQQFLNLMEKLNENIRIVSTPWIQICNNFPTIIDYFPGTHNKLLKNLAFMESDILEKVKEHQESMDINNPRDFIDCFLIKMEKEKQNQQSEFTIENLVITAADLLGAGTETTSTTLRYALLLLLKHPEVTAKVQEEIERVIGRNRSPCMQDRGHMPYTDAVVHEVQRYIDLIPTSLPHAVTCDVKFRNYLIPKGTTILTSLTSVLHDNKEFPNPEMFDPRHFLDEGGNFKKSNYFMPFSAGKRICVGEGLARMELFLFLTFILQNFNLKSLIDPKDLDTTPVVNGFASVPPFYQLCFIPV
Chain of SRC (P12931 whole entry): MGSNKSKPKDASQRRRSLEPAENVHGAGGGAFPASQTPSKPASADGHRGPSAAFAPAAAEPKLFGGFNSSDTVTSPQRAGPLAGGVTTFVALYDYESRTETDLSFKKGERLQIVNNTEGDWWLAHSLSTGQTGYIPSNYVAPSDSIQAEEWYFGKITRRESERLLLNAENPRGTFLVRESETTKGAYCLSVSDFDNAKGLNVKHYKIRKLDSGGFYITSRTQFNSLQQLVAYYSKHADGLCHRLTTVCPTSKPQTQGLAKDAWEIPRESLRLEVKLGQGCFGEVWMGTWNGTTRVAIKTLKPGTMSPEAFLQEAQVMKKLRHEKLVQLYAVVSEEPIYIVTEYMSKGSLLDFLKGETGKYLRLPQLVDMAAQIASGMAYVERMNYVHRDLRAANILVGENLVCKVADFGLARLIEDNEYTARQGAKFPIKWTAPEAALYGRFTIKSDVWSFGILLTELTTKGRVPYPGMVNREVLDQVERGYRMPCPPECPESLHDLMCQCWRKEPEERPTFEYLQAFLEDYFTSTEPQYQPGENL

As usually defined, the EC50 is the concentration needed to bring the measured effect to its halfway point. `Cc1ccc(-c2nn(CCN3CCCCC3)c3ncnc(N)c23)cc1` [7a] gave an EC50 in the data set with MCF7 cells [1] of 48800 nM.
As to `Cc1ccc(-c2nn(CCN3CCN(C)CC3)c3ncnc(N)c23)cc1` [7d], the “cell proliferation (% confluence over time)” value in the data set on MCF7 cells [2] (single dose 100 μM, 5 d, time-lapse imaging) is recorded as “strong inhibition of cell proliferation”.
`Cc1ccc(-c2nn(CCN3CCC(N(C)C)CC3)c3ncnc(N)c23)cc1` [7i]: the results for the IC50 at BLK and against HCK were 1540 nM and 1520 nM, respectively.
On to `Cc1ccc(-c2nn(CCN3CCC(CN(C)C)CC3)c3ncnc(N)c23)cc1` [7j], for which the IC50 at LCK turned out to be 1540 nM; on BLK, 2850 nM; against FRK/PTK5 it was 1630 nM; against HCK, 6010 nM; against LYN, 1070 nM.
Regarding `Cc1ccc(-c2nn(CCN3CCC(CCN(C)C)CC3)c3ncnc(N)c23)cc1` [7k], the IC50 was found to be 601 nM at FGR (setting [14]); 4340 nM at LCK; 3700 nM at FRK/PTK5; 11600 nM on HCK; 2510 nM at LYN.
As for `CCOC(Cn1nc(-c2cnc3[nH]ccc3c2)c2c(N)ncnc21)OCC` [8d, 1-(2,2-Diethoxyethyl)-3-(1H-pyrrolo[2,3-b]pyridin-5-yl)pyrazolo[3,4-d]pyrimidin-4-amine], the “antiproliferative mode of action by time-lapse imaging” value in the data set on MCF7 cells [2] is given as “halted cell division”. Further, the IC50 is 2130 nM on FGR (setting [14]); 8610 nM on LCK; 2690 nM against FRK/PTK5; 6770 nM on HCK; 2310 nM at LYN.
As to `CN(C)CC1CCN(CCn2nc(-c3cnc4[nH]ccc4c3)c3c(N)ncnc32)CC1` [9d, 1-[2-[4-(Dimethylaminomethyl)-1-piperidyl]ethyl]-3-(1H-pyrrolo[2,3-b]pyridin-5-yl)pyrazolo[3,4-d]pyrimidin-4-amine], the “antiproliferative mode of action by time-lapse imaging” value with MCF7 cells [2] is reported as “induced cell death”.
Usually AUC stands for the area under the concentration-time curve, a measure of exposure. A higher AUC goes with high exposure. In general, clearance refers to the volume of plasma or blood freed of the substance per unit of time. Low values mean inefficient removal, high ones efficient removal. The term Cmax denotes the peak of the concentration-time curve. Usually Tmax stands for the time at which the peak concentration occurs. For orientation: solubility means the dissolved amount per volume that the medium holds. By hepatocyte CLint is commonly meant the capacity of the preparation to metabolise the compound, expressed as a volume cleared per time. Low readings indicate slow turnover, high ones rapid turnover. By half-life is commonly meant how long it takes for the measured level to halve. A higher half-life goes with slow loss. For `COc1cc(-c2nn(CCN3CCC(N(C)C)CC3)c3ncnc(N)c23)ccc1NC(=O)OC(C)(C)C` [11a, tert-Butyl N-[4-[4-amino-1-[2-[4-(dimethylamino)-1-piperidyl]ethyl]pyrazolo[3,4-d]pyrimidin-3-yl]-2-methoxy-phenyl]carbamate], in data set [3], the “concentration with complete inhibition of phosphorylation of SRC and FAK” value worked out at 100 nM. Moreover, in the data set with MCF7 cells [4], the “concentration giving significant apoptotic cell death (caspase 3/7 activity)” value is given as at least 100 nM. Besides, the “inhibition of CYP3A4” value on CYP3A4 is at most 0%. The “inhibition of CYP2C9” value on CYP2C9 is on record as at most 0%. The “inhibition of CYP2D6” value on CYP2D6 is at most 0%. For the same molecule, in “in vivo” (iv), the AUC came out at 2070 ng·h/mL and the clearance is 72.3 mL/min/kg. Further, in “in vivo” (po), the AUC came out at 530 ng·h/mL, the Cmax is 100 ng/mL and the time of peak concentration (Tmax) is 2 h. In “physchem”, this molecule had a solubility above 100 mg/mL. In the data set “in vitro [5]”, this molecule had an intrinsic clearance (hepatocyte CLint) at 3 µM of 1.84 µL/min/1e6 cells. In “in vitro [6]”, this molecule had a half-life at 3 µM of 1.83 h and a hepatocyte CLint at 3 µM of 12.5 µL/min/1e6 cells. Also, the “inhibition of CYP1A2” value against CYP1A2 came out at 24.54%. Moreover, the “inhibition of CYP2C19” value against CYP2C19 is at most 0%.
Regarding `COc1cc(-c2nn(CCN3CCC(CN(C)C)CC3)c3ncnc(N)c23)ccc1NC(=O)OC(C)(C)C` [11b], the “antiproliferative activity in SYF cells” value in data set [7] is reported as “significantly less antiproliferative activity in SYF cells than dasatinib”. Also, on ABL, the IC50 worked out at 189 nM.
Regarding `COc1cc(-c2ccn(CCN3CCC(N(C)C)CC3)n2)ccc1NC(=O)OC(C)(C)C` [12f], the “decrease in antiproliferative activity relative to 11a” value with MDA-MB-231 cells [8] was above 3000 fold.
In the data set on MCF7 cells [1], `COc1cc(-c2nn(CCN3CCC(N(C)C)CC3)c3ncnc(N)c23)ccc1N` [12g] yielded an EC50 of 4930 nM.
Same read-out and setting: then `COc1cc(-c2nn(CCN3CCC(N(C)C)CC3)c3ncnc(N)c23)ccc1NC(=O)CCc1ccccc1` [12k, N-[4-[4-amino-1-[2-[4-(dimethylamino)-1-piperidyl]ethyl]pyrazolo[3,4-d]pyrimidin-3-yl]-2-methoxy-phenyl]-3-phenyl-propanamide], with 7040 nM.
For `CN(C)C1CCN(CCn2nc(-c3ccc(NC(=O)OC(C)(C)C)c(O)c3)c3c(N)ncnc32)CC1` [12s], the “decrease in antiproliferative activity relative to 11a” value with MDA-MB-231 cells [8] was above 200 fold. In addition, the “decrease in SRC inhibitory activity relative to 11a” value on SRC was above 200 fold.
For `CN(C)C1CCN(CCn2nc(-c3ccc(NC(=O)OC(C)(C)C)nc3)c3c(N)ncnc32)CC1` [12u], the EC50 in the data set with MDA-MB-231 cells [8] (read-out: EC50 (MDA-MB-231), 5 d, PrestoBlue cell viability) stood at 16700 nM.
`Cc1ccc(-c2nn(C(C)(C)C)c3ncnc(N)c23)cc1` [PP1, reference compound] came in with an IC50 on FGR of 7.6 nM.
Take `CC(=O)CC(c1ccccc1)c1c(O)c2ccccc2oc1=O` (stereo not drawn) [Warfarin]: in [9], the plasma protein bound is given as 99–100%.
With `Cc1nc(Nc2ncc(C(=O)Nc3c(C)cccc3Cl)s2)cc(N2CCN(CCO)CC2)n1.O` [dasatinib], in [10], the neuromast migration entry was “did not inhibit the migration of neuromasts”. The IC50 in the data set with MDA-MB-231 cells [11] is 8.4 nM. The solubility in water in data set [12] (pH = 2.6 ref 56) was 18 mg/mL. For the same molecule, in [12] (pH = 7 ref 56), the solubility in water is recorded as below 0.001 mg/mL. For the same molecule, the T1/2 in [13] (IV, 10 mg/kg, mice ref Kamath et al., 2008 (58)) was 0.9 h. The CL in data set [13] (IV, 10 mg/kg, mice ref Kamath et al., 2008) is 61.7 mL/min/kg. In addition, in data set [13] (setting [15]), the “% F” value is given as 17%, the maximum concentration (Cmax) was 104 ng/mL and the Tmax is 2 h. In [13] (5 mg/kg ref Luo et al., 2006), the “% F” value is reported as 45%, the Cmax is 58 ng/mL and the Tmax was 1 h.
`O=c1ccc2ccc(O)cc2o1` [umbelliferone, reference compound]: the half-life at 3 µM in the data set “in vitro [5]” worked out at 9.7 min; in the data set “in vitro [6]”, 0.0233 h. Besides, the results for the hepatocyte CLint at 3 µM in the data set “in vitro [5]” and in the data set “in vitro [6]” were 150 µL/min/1e6 cells and 983 µL/min/1e6 cells, respectively.
